{
  "source": "paper PMC9537572",
  "about": "“Elucidation of the binding mechanism of astragaloside IV derivative with human serum albumin and its cardiotoxicity in zebrafish embryos” (Frontiers in Pharmacology, 2022)",
  "test_system": "zebrafish embryos",
  "assay": "Astemizole-induced toxicity in zebrafish heart development",
  "format": "in vivo",
  "settings": "for Mortality: cotreated with 4 µM astemizole 48 h from 2 hpf",
  "protocol": "A total of 270 wild-type AB zebrafish at 2 h post-fertilization (2 hpf) were randomly selected, and 30 zebrafish were plated in each well of a six-well plates. The concentrations of LS-102 were 27.8, 83.3 and 250 µg/ml, while that of AGS IV was 250 µg/mL. A normal control group (fish culture water) and a 4 µM astemizole model control group were also established. After LS-102 and AGS IV were cotreated with astemizole for 48 h, zebrafish heart development was observed and photographed under a microscope to evaluate the ameliorative effect of LS-102 and AGS IV on astemizole-induced toxicity in zebrafish heart development.",
  "key": {"[1]": {"settings": "83.3 µg/mL, 4 µM astemizole, 48 h, n=30"}},
  "note": "Entries after “also recorded” stand apart in the source; their conditions may differ.",
  "data": [
    {"smiles": "CC(C)(O)C1CCC(C)(C2C(O)CC3(C)C4CC(OC5OC(C(=O)O)C(O)C(O)C5O)C5C(C)(C)C(OC6OCC(O)C(O)C6O)CCC56CC46CCC23C)O1", "note": "(centres unmarked) [LS-102, astragalosidic acid]", "values": [
      {"measurement": "Mortality", "setting": "27.8 µg/mL, n=30", "result": 0, "unit": "%"},
      {"measurement": "Phenotype: absence of blood flow (share of zebrafish)", "setting": "[1]", "result": 26.7, "unit": "%"},
      {"measurement": "Phenotype: pericardial oedema, venous sinus stasis (share of zebrafish)", "setting": "[1]", "result": 83.3, "unit": "%"},
      {"measurement": "Phenotype: slowed blood flow (share of zebrafish)", "setting": "[1]", "result": 56.7, "unit": "%"},
      {"measurement": "Mortality", "setting": "83.3 µg/mL, n=30", "result": 0, "unit": "%"},
      {"measurement": "Phenotype (in words)", "setting": "250 µg/mL, 4 µM astemizole, 48 h, n=30", "result": "no significant toxicity; also recorded: No abnormalities seen"},
      {"measurement": "Mortality", "setting": "250 µg/mL, n=30", "result": 30, "unit": "%"},
      {"measurement": "Effect on the developmental toxicity of zebrafish hearts induced by astemizole (in words)", "setting": "83.3 and 250 µg/ml, 4 µM astemizole, 48 h", "result": "ameliorating effect"}
    ]}
  ]
}
